Test results from patent US20130072506A1, “6,8-DISUBSTITUTED PURINE COMPOSITIONS” (priority 2011, published 2013).

Columns and labels:
[1] = test system: cytokinin-dependent tobacco callus; assay: Growth of cytokinin-dependent tobacco callus (plant cell division); format: cell-based, Nicotiana tabacum L. cv. Wisconsin 38; details: for Activity (%): at concentration with highest activity, activity of kinetin set at 100%
Experimental: The effect on plant cell division. Cytokinin-dependent tobacco callus Nicotiana tabacum L. cv. Wisconsin 38 was maintained at 25° C. in darkness on modified MS medium, containing 4 μmol/l nicotinic acid, 2.4 μmol/l pyridoxine hydrochloride, 1.2 μmol/l thiamine, 26.6 μmol/l glycine, 1.37 μmol/l glutamine, 1.8 μmol/1 myo-inositol, 30 g/l of sucrose, 8 g/l of agar, 5.37 μmol/l NAA and 0.5 μmol/l BAP. Subcultivation was carried out every three weeks. Fourteen days before the bioassay, the callus tissue was transferred to the media without BAP. Biological activity was determined from the increase in fresh callus weight after four weeks of cultivation. Five replicates were prepared for each cytokinin concentration and the entire test was repeated twice. From the obtained data, the concentration with highest activity was selected for each compound tested. Relative activity at this concentration was calculated (see Table 4 below).
The cytokinins to be tested were dissolved in dimethylsulfoxide (DMSO) and the solution brought up to 10^−3M with distilled water.

[2] = test system: T-lymphoblastic leukemia cell line CEM; assay: In vitro cytotoxic activity (metabolisation of Calcein AM); format: cell-based, human; details: Homo sapiens, CCRF-CEM, CEM cells, 72 hours incubation, called GI50, read-out: Cell line tested/IC50 (μmol/L) CEM
Text: (§1) In vitro Cytotoxic Activity (Metabolisation of Calcein AM). Because toxic compounds negatively influence metabolic processes of cells, many standard cytotoxicity assays are based on measurement of metabolisation rate of various artificial substrates. Resulting product is then quantified, for example, by means of spectrometry. The assays can be easily modified for use in 96-well plates. For evaluation of cytotoxicity of the 6,8-disubstituted purines of this invention, a microtiter assay based on quantification of metabolisation of Calcein AM was used. The assay is widely used in drug screening programs and in chemosensitivity testing. In live cells, Calcein AM is enzymatically hydrolysed and accumulation of resulting calcein is manifested by green fluorescence.
(§2) The following human cell lines were used for routine screening of the compounds: normal diploid fibroblasts BJ, T-lymphoblastic leukemia cell line CEM, promyelocytic leukemia cell line HL-60, erytroid leukemia cell line K-562, breast carcinoma cell line MCF-7, osteosarcoma cell line HOS and melanoma cell line G-361. The cells were maintained in Nunc/Corning 80 cm^2 plastic tissue culture flasks and cultured in cell culture medium (DMEM with 5 g/l glucose, 2 mM glutamine, […] penicillin, 100 mmg/ml streptomycin, 10% fetal calf serum and sodium bicarbonate).
(§3) The cell suspensions were prepared and diluted according to the particular cell type and the expected target cell density (2.500-30.000 cells per well based on cell growth characteristics) and pipetted (80 μl) into 96-well plates. Inoculates were allowed a pre-incubation period of 24 hours at 37° C. and 5% CO2 for stabilization. Tested compound was added in total volume of […] of water at time zero. Usually, test compound was evaluated at six 3-fold dilutions. In routine testing, the highest concentration tested was 100 μM, but it could have been adjusted because of limited solubility of a compound. All drug concentrations were tested in triplicates.
(§4) Incubations of cells with the test compounds lasted for 72 hours at 37° C., in 5% CO2 atmosphere and 100% humidity. At the end of incubation period Calcein AM in PBS was added into final concentration of 1 μg/ml. After another 1 hour of incubation fluorescence (FD) was measured with the Labsystem FIA Reader Fluoroscan Ascent (UK). Growth inhibition (GI) was estimated using the following equitation: GI=(mean FDdrug exposed wells−mean FDblank)/(mean FDcontrol wells−mean FDblank)×100%. The GI50 value, the drug concentration causing 50% reduction of Calcein AM conversion, was calculated from the obtained dose response curves.

[3] = test system: breast carcinoma cell line MCF-7; assay: as above; format: cell-based, human; details: Homo sapiens, MCF7 cells, 72 hours incubation, called GI50, read-out: Cell line tested/IC50 (μmol/L) MCF7
Text: as §1, §2, §3, §4

[4] = test system: erytroid leukemia cell line K-562; assay: as above; format: cell-based, human; details: Homo sapiens, K562, K-562 cells, 72 hours incubation, called GI50, read-out: Cell line tested/IC50 (μmol/L) K-562
Text: as §1, §2, §3, §4

[5] = test system: melanoma cell line G-361; assay: as above; format: cell-based, human; details: Homo sapiens, G-361 cells, 72 hours incubation, called GI50, read-out: Cell line tested/IC50 (μmol/L) G-361
Text: as §1, §2, §3, §4

[6] = test system: normal diploid fibroblasts BJ; assay: as above; format: cell-based, human; details: Homo sapiens, BJ cells, 72 hours incubation, called GI50, read-out: Cell line tested/IC50 (μmol/L) BJ
Text: as §1, §2, §3, §4

[7] = test system: osteosarcoma cell line HOS; assay: as above; format: cell-based, human; details: Homo sapiens, HOS cells, 72 hours incubation, called GI50, read-out: Cell line tested/IC50 (μmol/L) HOS
Text: as §1, §2, §3, §4

[8] = test system: Human diploid fibroblast BJ; assay: In vitro cytotoxic activity (metabolisation of MTT); format: cell-based; details: 72 hours, BJ passage 18-22
Experimental: In vitro Cytotoxic Activity (metabolisation of Mtt). MTT ([…]) assay is a standard colorimetric assay for evaluation of cytotoxicity. Mitochondrial dehydrogenase activity converts yellow MTT into violet formazan which is measured by means of spectrometry.
Human diploid fibroblast BJ (passage 18-22) were seeded into 96-well plate (5.000 cells per well). After 6 hours cultivation medium (DMEM with 5 g/l glucose, 2 mM glutamine, 100 U/ml penicillin, 100 mmg/ml streptomycin, 10% fetal calf serum and sodium bicarbonate) was replaced with the cultivation medium containing test compounds in concentration range of 0-200 μM. Highest concentration was adjusted if the solubility of the compound was limiting. Every concentration was tested in pentaplicate. MTT was added to the cells after 72 hours incubation (final concentration 0.5 mg/ml) and incubation continued for another 3 hours. MTT was solubilised by DMSO and absorbance at 570 nm was measured. Growth inhibition (GI) was estimated using the following equitation: GI=(mean A drug exposed wells−mean Ablank/mean Acontrol wells−mean Ablank)×100%. The GI20 value, the drug concentration causing 20% decrease in mitochondrial dehydrogenase activity, was calculated from the obtained dose response curves.

[9] = test system: Amaranthus caudatus cotyledon/hypocotyl explants; assay: Amaranthus bioassay (betacyanin content); format: in vivo, Amaranthus caudatus var. atropurpurea; details: for Activity (%): at concentration with highest activity, activity of kinetin set at 100%; for Concentration with highest activity: betacyanin content, 48 hours in darkness
Experimental: Testing of Novel Compounds in Amaranthus bioassay. Standard Amaranthus bioassay was performed with several modifications. The seeds of Amaranthus caudatus var. atropurpurea were surface-sterilized in 10% N-chlorobenzene sulfonamide (w/v) for 10 min and washed 5 times in deionized water. They were placed in 14 cm Petri dishes containing paper tissues saturated with deionized water. After 72 hours of cultivation at 25° C. in darkness, the roots of the seedlings were cut off. The explants, consisting of two cotyledons and hypocotyls, were placed in 5 cm Petri dishes on two layers of filter paper soaked in 1 ml of incubation medium containing 10 μmol Na2HPO4—KH2PO4, pH 6.8, 5 μmol tyrosine and the cytokinin to be tested. There were 20 explants per dish. The procedure was carried out under a green safe light in a darkroom. After a 48 hours of incubation at 25° C. in darkness, betacyanin was extracted by freezing the explants in 4 ml 3.33 μM acetic acid. The concentration of betacyanin was determined by comparing the absorbance at 537 nm and 620 nm as follows: DA=A537nm−A620nm. From the obtained data, the concentration with highest activity was selected for each compound tested. Relative activity of the compound at this concentration was calculated (see Table 3 below). […] The values shown in Table 3 are means of five replicates and the entire test was repeated twice.
The cytokinins to be tested were dissolved in dimethylsulfoxide (DMSO) and the solution brought up to 10^−3 M with distilled water.

Row | SMILES | melting point | Activity (%) [1] | IC50 [2] | IC50 [3] | IC50 [4] | IC50 [5] | IC50 [6] | IC50 [7] | GI20 [8] | Activity (%) [9] | Concentration with highest activity [9] | Concentration with highest activity ([1]; increase in fresh callus weight after four weeks)
1 | CC(C)=CCNc1ncnc2nc(N)[nH]c12 [Compound 87, 6-(3-methylbut-2-en-1-ylamino)-8-aminopurine] | – | 150.44% | > 50 µmol/L | > 50 µmol/L | > 50 µmol/L | > 50 µmol/L | > 50 µmol/L | > 50 µmol/L | >100 µM | 171.36% | 10^−4 mol/l | –
2 | COc1nc2ncnc(NCc3ccccc3)c2[nH]1 [Compound 121, 6-Benzylamino-8-methoxypurine] | – | 129.11% | > 50 µmol/L | > 50 µmol/L | > 50 µmol/L | > 50 µmol/L | > 50 µmol/L | > 50 µmol/L | – | 121.15% | 10^−4 mol/l | –
3 | CSc1nc2ncnc(NCc3ccccc3)c2[nH]1 [Compound 148, 6-Benzylamino-8-methylsulphanylpurine] | 234 to 237 °C | 109.36% | – | – | – | – | – | – | – | – | – | –
4 | Oc1nc2ncnc(NCc3ccccc3)c2[nH]1 [Compound 167, 6-Benzylamino-8-hydroxypurine] | 243 to 247 °C | – | > 50 µmol/L | > 50 µmol/L | > 50 µmol/L | > 50 µmol/L | > 50 µmol/L | > 50 µmol/L | – | – | – | –
5 | COC(=O)c1nc2ncnc(NCc3ccccc3)c2[nH]1 [Compound 188] | – | 148.91% | – | – | – | – | – | – | – | 122.51% | 10^−4 mol/l | 10^−6 mol/l

Further lines, with some results ahead:

Row | melting point | SMILES | Activity (%) [1] | IC50 [2] | IC50 [3] | IC50 [4] | IC50 [5] | IC50 [6] | IC50 [7] | GI20 [8] | Activity (%) [9] | Concentration with highest activity [9] | Concentration with highest activity ([1]; increase in fresh callus weight after four weeks)
6 | 223 to 226 °C | Nc1nc2ncnc(NCc3ccccc3)c2[nH]1 [Compound 83, 8-Amino-6-benzylaminopurine] | 197.08% | > 50 µmol/L | > 50 µmol/L | > 50 µmol/L | > 50 µmol/L | > 50 µmol/L | > 50 µmol/L | >100 µM | – | – | –
7 | 196 to 198 °C | COc1nc2ncnc(NCc3ccco3)c2[nH]1 [Compound 120, 6-Furfurylamino-8-methoxypurine] | – | > 50 µmol/L | > 50 µmol/L | > 50 µmol/L | > 50 µmol/L | > 50 µmol/L | > 50 µmol/L | – | – | – | –
8 | 187 to 189 °C | NCc1nc2ncnc(NCc3ccccc3)c2[nH]1 [Compound 181, 8-Aminomethyl-6-benzylaminopurine] | – | > 50 µmol/L | > 50 µmol/L | > 50 µmol/L | > 50 µmol/L | > 50 µmol/L | > 50 µmol/L | – | – | – | –
9 | 230 to 232 °C | O=C(O)c1nc2ncnc(NCc3ccccc3)c2[nH]1 [Compound 202, 6-Benzylaminopurine-8-carboxylic acid] | – | – | – | – | – | – | – | – | – | – | –
10 | 170 to 173 °C | NCCCNc1nc2ncnc(NCc3ccccc3)c2[nH]1 [Compound 209, 8-(3-Aminopropylamino)-6-benzylaminopurine] | 150.01% | > 50 µmol/L | > 50 µmol/L | > 50 µmol/L | > 50 µmol/L | > 50 µmol/L | > 50 µmol/L | >100 µM | – | – | –
11 | 182 to 184 °C | OCCOc1nc2ncnc(NCc3ccco3)c2[nH]1 [Example 7 (18), 6-Furfurylamino-8-(2-hydroxyethyloxy)purine] | – | – | – | – | – | – | – | – | – | – | –
12 | 246 to 249 °C | CC(C)=CCNc1ncnc2nc(N(C)C)[nH]c12 [Example 7 (19), 8-Dimethylamino-6-(3-methylbut-2-en-1-ylamino)purine] | – | – | – | – | – | – | – | – | – | – | –
13 | 245 to 249 °C | C/C(=C\CNc1ncnc2nc(N(C)C)[nH]c12)CO [Example 7 (23), (E)-8-Dimethylamino-6-(4-hydroxy-3-methylbut-2-en-1-ylamino)purine] | – | – | – | – | – | – | – | – | – | – | –
